Measurements published in PubChem BioAssay (NCI).
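Five concentrations, 48 hours, 96-well plates. Abbreviation: GI50, concentration required for 50% inhibition of growth. At the TGI there is no net growth.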

Tests used:
Test in all cases: NCI-60 cell line screen, 48 h
LOX IMVI melanoma = test system: LOX IMVI melanoma
RXF 393 renal = test system: RXF 393 renal
COLO 205 colon = test system: COLO 205 colon
IGROV1 ovarian = test system: IGROV1 ovarian
MALME-3M melanoma = test system: MALME-3M melanoma
SF-268 CNS = test system: SF-268 CNS
CAKI-1 renal = test system: CAKI-1 renal
KM12 colon = test system: KM12 colon
DU-145 prostate = test system: DU-145 prostate
UO-31 renal = test system: UO-31 renal
MCF7 breast = test system: MCF7 breast
HCT-116 colon = test system: HCT-116 colon
MDA-MB-435 = test system: MDA-MB-435
RPMI-8226 leukemia = test system: RPMI-8226 leukemia
SK-OV-3 ovarian = test system: SK-OV-3 ovarian
ACHN renal = test system: ACHN renal
HT29 colon = test system: HT29 colon
SR leukemia = test system: SR leukemia
NCI-H460 lung = test system: NCI-H460 lung
OVCAR-8 ovarian = test system: OVCAR-8 ovarian
UACC-62 melanoma = test system: UACC-62 melanoma
A549 NSCLC = test system: A549 NSCLC
MDA-MB-231 breast = test system: MDA-MB-231 breast
PC-3 prostate = test system: PC-3 prostate
NCI/ADR-RES ovarian = test system: NCI/ADR-RES ovarian
SF-539 CNS = test system: SF-539 CNS
SNB-75 CNS = test system: SNB-75 CNS
MOLT-4 leukemia = test system: MOLT-4 leukemia

In the case of `CCOc1c(Br)cc(C2C(C(=O)OC)=CN(C)C=C2C(=O)OC)cc1OC`, the GI50 (LOX IMVI melanoma) is reported as 85.1 µM, the TGI (LOX IMVI melanoma) is reported as over 100 µM and the GI50 (RXF 393 renal) is reported as 24.1 µM. For the same compound, the TGI (RXF 393 renal) was over 100 µM, the GI50 (COLO 205 colon) was 99.2 µM and the TGI (COLO 205 colon) was over 100 µM. The GI50 (IGROV1 ovarian) was over 100 µM, the TGI (IGROV1 ovarian) was over 100 µM and the GI50 (MALME-3M melanoma) was over 100 µM. It also gave a TGI (MALME-3M melanoma) of over 100 µM, a GI50 (SF-268 CNS) of over 100 µM and a TGI (SF-268 CNS) of over 100 µM. It also gave a GI50 (CAKI-1 renal) of 44.3 µM, a TGI (CAKI-1 renal) of over 100 µM and a GI50 (KM12 colon) of 38.6 µM. It also gave a TGI (KM12 colon) of over 100 µM, a GI50 (DU-145 prostate) of over 100 µM and a TGI (DU-145 prostate) of over 100 µM. It also gave a GI50 (UO-31 renal) of 28.8 µM, a TGI (UO-31 renal) of over 100 µM and a GI50 (MCF7 breast) of 40.6 µM. The TGI (MCF7 breast) was over 100 µM, the GI50 (HCT-116 colon) was 48.3 µM and the TGI (HCT-116 colon) was over 100 µM. It also gave a GI50 (MDA-MB-435) of 37.3 µM, a TGI (MDA-MB-435) of over 100 µM and a GI50 (RPMI-8226 leukemia) of 45.5 µM. The TGI (RPMI-8226 leukemia) was over 100 µM, the GI50 (SK-OV-3 ovarian) was over 100 µM and the TGI (SK-OV-3 ovarian) was over 100 µM. It also gave a GI50 (ACHN renal) of 77.6 µM, a TGI (ACHN renal) of over 100 µM and a GI50 (HT29 colon) of 45.6 µM. The TGI (HT29 colon) was over 100 µM, the GI50 (SR leukemia) was 30.6 µM and the TGI (SR leukemia) was over 100 µM. The GI50 (NCI-H460 lung) was 58.1 µM, the TGI (NCI-H460 lung) was over 100 µM and the GI50 (OVCAR-8 ovarian) was 68.1 µM. It also gave a TGI (OVCAR-8 ovarian) of over 100 µM, a GI50 (UACC-62 melanoma) of 50.2 µM and a TGI (UACC-62 melanoma) of over 100 µM. The GI50 (A549 NSCLC) was 47.8 µM, the TGI (A549 NSCLC) was over 100 µM and the GI50 (MDA-MB-231 breast) was 32.8 µM. It also gave a TGI (MDA-MB-231 breast) of over 100 µM, a GI50 (PC-3 prostate) of 30 µM and a TGI (PC-3 prostate) of over 100 µM. The GI50 (NCI/ADR-RES ovarian) was 43.6 µM, the TGI (NCI/ADR-RES ovarian) was over 100 µM and the GI50 (SF-539 CNS) was over 100 µM. The TGI (SF-539 CNS) was over 100 µM, the GI50 (SNB-75 CNS) was 26.1 µM and the TGI (SNB-75 CNS) was over 100 µM. For the same compound, the GI50 (MOLT-4 leukemia) was 38.9 µM and the TGI (MOLT-4 leukemia) was over 100 µM.
